Results: PubChem BioAssay AID2060894 (Molecular Pharmacology Branch, DTP, NCI, 2025)

Tested on: K12877-001-R-J1-PDC complex spheroid viability
Assay: Anticancer human tumor K12877-001-R-J1-PDC patient-derived lung adenocarcinoma cell line growth inhibition [RAS]
Conditions: for IC50: curve of first compound; for viability, T/C: stronger effect = lower value
Outline: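 Tumour cells grown as complex spheroids with HUVEC endothelial cells and mesenchymal stem cells, treated with RAS pathway inhibitor combinations. Each agent spans half-log steps from near clinical Cmax, or 10 microM where Cmax is unknown.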
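Further: spheroids exposed to agents for one week before readout.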
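Wherever viability, T/C is given: tumour cells co-cultured with HUVEC and mesenchymal stem cells in spheroids.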

CC1(O)CCCC1n1c(=O)c(C(F)F)cc2cnc(NC3CCN(S(C)(=O)=O)CC3)nc21 (configuration not stated) + C#Cc1c(F)ccc2cc(O)cc(-c3ncc4c(N5CC6CCC(C5)N6)nc(OCC56CCCN5CC(F)C6)nc4c3F)c12
IC50 (second compound 0.0316 µM): 3.31 µM | IC50 (second compound 0.1 µM): 3.06 µM | IC50 (second compound 0.316 µM): 3.92 µM | IC50 (second compound 1 µM): 3.97 µM | IC50 (second compound 3.16 µM): 4.16 µM | IC50 (second compound 10 µM): 3.48 µM | viability, T/C (second compound 0.0316 µM, first compound 0.0316 µM): 98.5% | viability, T/C (second compound 0.0316 µM, first compound 0.1 µM): 115% | viability, T/C (second compound 0.0316 µM, first compound 0.316 µM): 77.2% | viability, T/C (second compound 0.0316 µM, first compound 1 µM): 72.1% | viability, T/C (second compound 0.0316 µM, first compound 3.16 µM): 60.9% | viability, T/C (second compound 0.0316 µM, first compound 10 µM): 3.3% | viability, T/C (second compound 0.1 µM, first compound 0.0316 µM): 112% | viability, T/C (second compound 0.1 µM, first compound 0.1 µM): 115% | viability, T/C (second compound 0.1 µM, first compound 0.316 µM): 87.7% | viability, T/C (second compound 0.1 µM, first compound 1 µM): 66% | viability, T/C (second compound 0.1 µM, first compound 3.16 µM): 62.7% | viability, T/C (second compound 0.1 µM, first compound 10 µM): 3.47% | viability, T/C (second compound 0.316 µM, first compound 0.0316 µM): 119% | viability, T/C (second compound 0.316 µM, first compound 0.1 µM): 104% | viability, T/C (second compound 0.316 µM, first compound 0.316 µM): 85.3% | viability, T/C (second compound 0.316 µM, first compound 1 µM): 81.1% | viability, T/C (second compound 0.316 µM, first compound 3.16 µM): 72.3% | viability, T/C (second compound 0.316 µM, first compound 10 µM): 3.03% | viability, T/C (second compound 1 µM, first compound 0.0316 µM): 106% | viability, T/C (second compound 1 µM, first compound 0.1 µM): 106% | viability, T/C (second compound 1 µM, first compound 0.316 µM): 84.7% | viability, T/C (second compound 1 µM, first compound 1 µM): 83% | viability, T/C (second compound 1 µM, first compound 3.16 µM): 67.2% | viability, T/C (second compound 1 µM, first compound 10 µM): 3.27% | viability, T/C (second compound 3.16 µM, first compound 0.0316 µM): 120% | viability, T/C (second compound 3.16 µM, first compound 0.1 µM): 93.1% | viability, T/C (second compound 3.16 µM, first compound 0.316 µM): 93.3% | viability, T/C (second compound 3.16 µM, first compound 1 µM): 80% | viability, T/C (second compound 3.16 µM, first compound 3.16 µM): 74.1% | viability, T/C (second compound 3.16 µM, first compound 10 µM): 3.16% | viability, T/C (second compound 10 µM, first compound 0.0316 µM): 92% | viability, T/C (second compound 10 µM, first compound 0.1 µM): 87% | viability, T/C (second compound 10 µM, first compound 0.316 µM): 71.6% | viability, T/C (second compound 10 µM, first compound 1 µM): 76.9% | viability, T/C (second compound 10 µM, first compound 3.16 µM): 56.3% | viability, T/C (second compound 10 µM, first compound 10 µM): 2.77%
